# Assay results as given in patent US20090239841A1, “Diaryl Ureas as CB1 Antagonists” (priority 2004, published 2009).
# Target: T1, hCB1 (Homo sapiens, UniProt P21554)
# T1 construct: made in house; host or cells: Sf9 insect cells (baculovirus), P2 membranes
# Assay: Agonist-induced GTP binding (GTPγ35S) assay at CB1, Example 8
# Type: biochemical
# Conditions: IC50 at CB1, determined as described in Example 8; read-out: IC50
# How it was run: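 Antagonism read as inhibition of 1 nM CP55,940-stimulated GTPγ35S ([…]) binding, compounds at 10^−10 to 10^−5 M. Baculovirus-infected Sf9 membranes bearing hCB1 plus G-protein subunits, 60 min room-temperature incubation with 5 μM GDP. Filtration and scintillation counting; data as percent over basal.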
# T1 sequence (P21554 whole entry): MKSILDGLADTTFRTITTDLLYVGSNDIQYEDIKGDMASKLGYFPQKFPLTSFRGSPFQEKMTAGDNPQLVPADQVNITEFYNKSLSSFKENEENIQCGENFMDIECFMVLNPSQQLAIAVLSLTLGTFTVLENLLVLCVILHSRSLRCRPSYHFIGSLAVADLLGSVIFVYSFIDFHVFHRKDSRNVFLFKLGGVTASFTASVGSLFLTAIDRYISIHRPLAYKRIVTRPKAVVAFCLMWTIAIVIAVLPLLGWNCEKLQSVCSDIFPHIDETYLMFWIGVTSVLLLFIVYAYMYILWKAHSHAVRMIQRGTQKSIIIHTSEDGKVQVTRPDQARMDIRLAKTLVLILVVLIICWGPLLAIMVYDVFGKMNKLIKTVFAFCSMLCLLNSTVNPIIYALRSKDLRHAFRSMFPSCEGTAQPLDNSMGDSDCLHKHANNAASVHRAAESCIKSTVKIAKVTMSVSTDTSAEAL
row,SMILES,IC50 [µM]
1,"COC(=O)c1ccc(NC(=O)Nc2cccc(OCCO)c2)cc1 [Compound 755, methyl 4-[({[3-(2-hydroxyethoxy)phenyl]amino}carbonyl)amino] benzoate]",< 2
2,"CCOC(=O)c1cccc(NC(=O)Nc2ccc(S(C)(=O)=O)cc2)c1 [Compound 723, ethyl 3-[({[4-(methylsulfonyl)phenyl]amino}carbonyl)amino] benzoate]",< 2
3,"CC(=O)c1ccc(NC(=O)Nc2cccc(OC(C)C)c2)cc1 [Compound 420, 1-(4-acetylphenyl)-3-(3-isopropoxyphenyl)urea]",< 2
4,"COc1ccc(NC(=O)Nc2cccc(C#N)c2)cc1 [Compound 409, 1-(3-cyanophenyl)-3-(4-methoxyphenyl)urea]",< 2
5,"O=C(Nc1ccc([N+](=O)[O-])cc1)Nc1cccc(OC(F)F)c1 [Compound 566, 1-[3-(difluoromethoxy)phenyl]-3-(4-nitrophenyl)urea]",< 2
6,"CC(C)Oc1ccc(NC(=O)Nc2cc(F)cc(F)c2)cc1 [Compound 709, 1-(3,5-difluorophenyl)-3-(4-isopropoxyphenyl)urea]",< 2
7,"Cc1ccc(NC(=O)Nc2ccc(F)cc2)cc1C [Compound 428, 1-(3,4-dimethylphenyl)-3-(4-fluorophenyl)urea]",< 2
8,"CCOC(=O)c1cccc(NC(=O)Nc2ccc(C)c(Cl)c2)c1 [Compound 770, ethyl 3-({[(3-chloro-4-methylphenyl)amino]carbonyl}amino)benzoate]",< 2

# Further lines, results first:
row,IC50 [µM],SMILES
1,< 2,"CCOC(=O)c1cccc(NC(=O)Nc2ccc(CC#N)cc2)c1 [Compound 714, ethyl 3-[({[4-(cyanomethyl)phenyl]amino}carbonyl)amino)benzoate]"
2,< 2,"COCc1ccc(NC(=O)Nc2cccc(C(=O)OC)c2)cc1 [Compound 667, methyl 3-[({[4-(methoxymethyl)phenyl]amino}carbonyl)amino]benzoate]"
3,< 2,"CC(C)Oc1cccc(NC(=O)Nc2ccc(Cl)cc2)c1 [Compound 401, 1-(4-chlorophenyl)-3-(3-isopropoxyphenyl)urea]"
4,< 2,"CCOc1ccc(NC(=O)Nc2cc(C)cc(C)c2)cc1 [Compound 704, 1-(3,5-dimethylphenyl)-3-(4-ethoxyphenyl)urea]"
5,< 2,"COc1ccc(NC(=O)Nc2ccc(OC(F)F)cc2)cc1 [Compound 530, 1-[4-(difluoromethoxy)phenyl]-3-(4-methoxyphenyl)urea]"
6,< 2,"Cc1ccc(NC(=O)Nc2ccc(OCC(C)O)cc2)cc1F (stereo not drawn) [Compound 763, 1-(3-fluoro-4-methylphenyl)-3-[4-(2-hydroxypropoxy)phenyl]urea]"
7,< 2,"CCOc1ccc(NC(=O)Nc2ccc(Cl)c(Cl)c2)cc1 [Compound 624, 1-(3,4-dichlorophenyl)-3-(4-ethoxyphenyl)urea]"
8,< 2,"CCc1cccc(NC(=O)Nc2cccc(OC(C)C)c2)c1 [Compound 399, 1-(3-ethylphenyl)-3-(3-isopropoxyphenyl)urea]"

# Same assay, conditions: Table I; IC50 at CB1, GTP binding with 1 nM CP55,940; read-out: IC50
row,IC50 [µM],SMILES
1,< 2,"N#Cc1cccc(NC(=O)Nc2ccc(OC(F)F)cc2)c1 [Compound 8, N-(3-cyanophenyl)-N′-[4-(difluoromethoxy)phenyl]urea]"

# Same assay, conditions: Table II; IC50 at CB1, GTP binding with 1 nM CP55,940; read-out: IC50
row,SMILES,IC50 [µM]
1,"CS(=O)(=O)N1CCc2cc(NC(=O)Nc3ccc(OC(F)F)cc3)ccc21 [Compound 109, N-[4-(difluoromethoxy)phenyl]-N′-[1-(methylsu1fonyl)-2,3-dihydro-1H-indol-5-yl]urea]",< 2
2,"CCc1cncc(-c2cccc(NC(=O)Nc3ccc(OC(F)F)cc3)c2)n1 [Compound 124, N-[4-(difluoromethoxy)phenyl]-N′-[3-(6-ethylpyrazin-2-yl)phenyl]urea]",< 2

# Second part, the molecule after the results:
row,IC50 [µM],SMILES
1,< 2,"O=C(Nc1ccc(OC(F)F)cc1)Nc1ccc(N2CCOCC2)c(Cl)c1 [Compound 81, N-(3-chloro-4-morpholin-4-ylphenyl)-N′-[4-(difluoromethoxy)phenyl]urea]"
2,< 2,"CCc1cccc(NC(=O)Nc2ccc(COC)cc2)c1 [Compound 239, N-(3-ethylphenyl)-N′-[4-(methoxymethyl)phenyl]urea]"
